Experimental data taken from the NIST ThermoML archive (doi:10.1021/je501106d).

Conditions: for speed of sound: Brillouin scattering; for vapor or sublimation pressure: Closed cell (Static) method

CCCCCC [hexane]
speed of sound [m/s], Liquid
Conditions	1000 kPa	2500 kPa	4000 kPa	5500 kPa	7000 kPa	7500 kPa	8500 kPa
300.15 K	1080	1090	1102	1115	1129	–	1140
313.15 K	1027	1038	1049	1062	1077	–	1092
328.15 K	964.1	975.9	988.6	1002	1017	–	1032
343.15 K	900.3	913.8	927.8	942.3	957.3	–	972.8
353.15 K	857	872	887.1	902.5	918.1	–	934
363.15 K	813.22	829.9	846.4	862.9	879.3	–	895.7
373.15 K	768.8	787.4	805.6	823.4	840.9	–	857.9
383.15 K	723.8	744.7	764.8	784.1	802.8	–	820.7
393.15 K	678.3	701.6	723.8	744.9	765	–	783.9
403.15 K	632.1	658.2	682.8	705.9	727.5	–	747.7
413.15 K	585.4	614.5	641.7	667	690.4	–	711.9
423.15 K	538.1	570.5	600.6	628.3	653.7	–	676.7
433.15 K	490.1	526.2	559.3	589.7	–	617.3	642
443.15 K	–	481.5	518	551.3	581.2	–	607.8
448.15 K	–	459.1	497.4	532.1	563.3	–	590.9
453.15 K	–	436.6	476.7	513	545.4	–	574.1
458.15 K	–	414	456	493.9	527.7	–	557.4
463.15 K	–	391.3	435.2	474.8	510.1	–	540.9
468.15 K	–	368.5	414.5	455.8	492.5	–	524.5
473.15 K	–	345.7	393.7	436.8	475	–	508.2
478.15 K	–	322.8	372.9	417.9	457.6	–	492.1
483.15 K	–	–	352.1	399	440.3	–	476.1
488.15 K	–	–	331.3	380.1	–	–	–
493.15 K	–	–	310.5	361.3	–	–	–
498.15 K	–	–	289.6	342.5	–	–	–
503.15 K	–	–	268.8	323.7	–	–	–
506.15 K	–	–	256.2	312.5	–	–	–

Conditions	speed of sound, Gas [m/s]	speed of sound, Liquid [m/s]	vapor or sublimation pressure, Liquid [kPa]
300.15 K	–	1073	14
313.15 K	–	993	63
328.15 K	–	926.8	94
343.15 K	–	882.7	122
353.15 K	–	838.8	161
363.15 K	–	794.9	214
373.15 K	–	751	260
383.15 K	178.6	707.2	331
393.15 K	176.6	663.4	413
403.15 K	174.3	619.5	512
413.15 K	171.6	575.6	627
423.15 K	168.3	531.6	762
433.15 K	164.2	487.5	924
443.15 K	159.4	443.1	1113
448.15 K	156.6	420.7	1210
453.15 K	153.5	398.2	1322
458.15 K	150.1	375.6	1447
463.15 K	146.4	352.8	1563
468.15 K	142.2	329.8	1700
473.15 K	137.6	306.4	1843
478.15 K	132.5	282.6	1992
483.15 K	126.9	258.2	2144
488.15 K	120.6	233	2313
493.15 K	113.4	206.4	2491
498.15 K	105.3	177.3	2677
503.15 K	95.91	142	2878
506.15 K	89.34	109.7	2991

Cc1ccccc1 [toluene]
Liquid
Conditions	speed of sound [m/s]
323.15 K	1200.8
423.15 K	806
523.15 K	425.5
